Key:
p38 MAP kinase = assay: p38 phosphorylation, Western blot, Jurkat T cells; format: cell-based, human
Source text: It has been shown that multiple stimuli including DNA damaging agents induce apoptosis via activation of p38 MAP kinase (Kummer J L, et al., 1997, Apoptosis induced by withdrawal of trophic factors is mediated by p38 mitogen-activated protein kinase. J. Biol Chem 272:20490-4; Sanchez-Prieto R, et al., 2000, A role for the p38 mitogen-acitvated protein kinase pathway in the transcriptional activation of p53 on genotoxic stress by chemotherapeutic agents. Cancer Res 60:2464-72). […] The levels of Tyr-182 phosphorylated p38 protein were increased by 3-fold at 2 h and reached its maximum (˜9-fold) by 6 h (FIG. 8A). In has been shown that dual phosphorylation of p38 on Tyr-182 and Thr-180 activates this kinase (Raingeaud J, et al., 1995, Pro-inflammatory cytokines and environmental stress cause p38 mitogen-activated protein kinase activation by dual phosphorylation on tyrosine and threonine. J Biol Chem 270:7420-6). […] Therefore, lactam 1-induced DNA damage triggered activation of p38 before S population accumulation and apoptosis induction.

LNCaP cells = LNCaP cells in soft agar, 50 μM, 21 day-incubation
Protocol: The soft agar assay was performed as described previously (Menter D G, Sabichi A L, Lippman S M., 2000, Selenium effects on prostate cell growth. Cancer Epidemiol Biomarkers Prev 9:1171-82) with a few modifications. In brief, in a six-well plate, a bottom feeder layer (0.6% agar) was prepared with DMEM media containing 10% fetal bovine serum, 100 units/ml penicillin, and 100 μg/ml streptomycin. […] Plates were incubated at 37° C. in 5% CO2 in a humidified incubator for three weeks. MTT (1 mg/ml) was added to each well and incubated overnight to allow complete formation of purple formazan crystals. The plates were then scanned and photographed, and the number of colonies was quantified by Quantity one v.4.0.3 software (Bio-Rad, Hercules, Calif.).

BID = settings: Jurkat T cells, 50 μM
Protocol: Human Jurkat T cells were cultured in RPMI 1640, supplemented with 10% fetal calf serum, 100 units/ml of penicillin and 100 μg/ml of streptomycin. Human breast cancer MCF-7 and MDA-MB-231 cells, human prostate cancer PC-3 cells, and human head-and-neck cancer PCI-13 cells were grown in Dulbecco's modified Eagle's medium containing 10% fetal calf serum, penicillin and streptomycin. All the cell lines were maintained in a 5% CO2 atmosphere at 37° C. A whole cell extract was prepared as described previously (An et al., 1998). Briefly, cells are harvested, washed with PBS and homogenized in a lysis buffer (50 mM Tris-HCl, pH 8.0, 5 mM EDTA, 150 mM NaCl, 0.5% NP-40, 0.5 mM PMSF, and 0.5 mM dithiothreitol) for 30 min at 4° C. After that, the lysates are centrifuged at 14,000×g for 30 min and the supernatants are collected as whole cell extracts. Equal amounts of protein extract (50 μg) are resolved by SDS-polyacrylamide gel electrophoresis and then transferred to a nitrocellulose membrane (Schleicher & Schuell, Keene, N H) using a Semi-Dry Transfer System (BIO-RAD; Hercules, Calif.). The enhanced chemiluminescence (ECL) Western Blot analysis is then performed using specific antibodies to the proteins of interest.

NK cells (YT line) = settings: YT cells, 30 μM, 24 h
Protocol: The trypan blue dye exclusion assay was performed by mixing 20 μl of cell suspension with 20 μl of 0.4% trypan blue dye before injecting into a hemocytometer and counting. The number of cells that absorbed the dye and those that exclude the dye were counted, from which the percentage of nonviable cell number to total cell number was calculated.

## COC1C(=O)N(SC)C1c1ccccc1Cl (racemic) [lactam 1]
p38 MAP kinase; 50 μM, 2 h
  increase of Tyr-182 phosphorylated p38 protein: 3 fold
p38 MAP kinase; 50 μM, 6 h
  increase of Tyr-182 phosphorylated p38 protein (maximum): ~9 fold
p38 MAP kinase; 50 μM, up to 12 hours
  levels of total p38 protein: remained relatively unchanged
p38 MAP kinase; FIG. 8D
  normalized increase in phosphorylation of p38 over control: 5.9 fold
LNCaP cells
  inhibition of colony formation: 91%
BID
  time at which 15-kDa fragment of Bid was first observed: 2 h
  time of peak of 15-kDa fragment of Bid: 6 h
NK cells (YT line)
  cell death (trypan blue): 9%

Source: patent publication US7635693B2, “Methods for preventing and treating cancer using N-thiolated β-lactam compounds and analogs thereof” (University of South Florida, priority 2002, dated 2009)
